pIC50: −log10 of the molar value.
Biological target: T1, LATS1 Kinase-NanoLuc fusion in HEK-293 cells (Homo sapiens, UniProt O95835)
T1 construct: host or cells: HEK-293
T1 sequence (O95835 1-1130): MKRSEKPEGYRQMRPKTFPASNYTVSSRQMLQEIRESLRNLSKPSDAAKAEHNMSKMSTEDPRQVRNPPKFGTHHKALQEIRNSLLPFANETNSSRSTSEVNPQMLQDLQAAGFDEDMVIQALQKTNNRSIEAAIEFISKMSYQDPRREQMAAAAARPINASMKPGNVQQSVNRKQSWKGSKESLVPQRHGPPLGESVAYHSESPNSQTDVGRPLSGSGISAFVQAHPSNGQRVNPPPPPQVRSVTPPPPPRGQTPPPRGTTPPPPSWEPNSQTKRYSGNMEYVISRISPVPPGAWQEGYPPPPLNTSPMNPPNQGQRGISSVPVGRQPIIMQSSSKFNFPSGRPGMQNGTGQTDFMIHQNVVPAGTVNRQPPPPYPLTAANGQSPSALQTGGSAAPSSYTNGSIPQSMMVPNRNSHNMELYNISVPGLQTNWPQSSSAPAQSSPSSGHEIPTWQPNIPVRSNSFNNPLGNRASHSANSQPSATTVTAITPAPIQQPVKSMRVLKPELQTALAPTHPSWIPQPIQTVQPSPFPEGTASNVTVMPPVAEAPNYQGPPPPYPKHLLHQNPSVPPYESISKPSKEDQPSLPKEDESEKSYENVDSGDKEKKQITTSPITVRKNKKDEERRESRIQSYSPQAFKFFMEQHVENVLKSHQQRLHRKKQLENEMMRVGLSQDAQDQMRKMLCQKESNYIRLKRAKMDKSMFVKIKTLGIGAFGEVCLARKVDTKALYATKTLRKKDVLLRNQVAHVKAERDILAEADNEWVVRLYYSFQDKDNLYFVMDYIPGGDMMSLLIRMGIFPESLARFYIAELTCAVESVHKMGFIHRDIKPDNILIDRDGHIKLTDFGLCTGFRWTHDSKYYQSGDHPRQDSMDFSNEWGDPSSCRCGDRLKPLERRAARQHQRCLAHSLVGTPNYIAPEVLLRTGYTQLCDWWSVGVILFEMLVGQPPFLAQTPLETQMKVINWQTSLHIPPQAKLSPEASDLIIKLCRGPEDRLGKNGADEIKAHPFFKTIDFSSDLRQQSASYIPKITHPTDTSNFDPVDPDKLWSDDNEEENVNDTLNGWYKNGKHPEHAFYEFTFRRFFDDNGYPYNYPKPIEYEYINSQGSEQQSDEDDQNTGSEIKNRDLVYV
Assay: NanoBRET target engagement assay in transfected HEK-293 cells, LATS1
Type: cell-based
Details: Table 28, NanoBRET, HEK-293 cells; read-out: LATS1 (Cellular) IC50
Text: The NanoBRET™ assay measures kinase engagement in real time in the context of the intact cell. The assay uses a Kinase-NanoLuc® fusion vector expressing a kinase protein to which a luciferase tag has been added, a cell-permeant fluorescent NanoBRET™ tracer, a NanoLuc® substrate, and an extracellular NanoLuc® inhibitor. Upon expression of the luciferase-tagged kinase, cells will produce a strong BRET signal only in the presence of the NanoBRET™ tracer. The extracellular NanoLuc® inhibitor ensures that the BRET signal observed emanates only from live cells. Because the BRET signal has tight distance constraints, addition of the test compound will decrease the BRET signal if the compound competes with the NanoBRET™ tracer for binding to the kinase domain. Under the appropriate tracer conditions established by the manufacturer, quantitative intracellular affinity and relative potency can then be determined using Mass Action model equations.
HEK-293 cells were purchased from ATCC. FuGENEHD Transfection Reagent, Kinase-NanoLuc® fusion plasmids, Transfection Carrier DNA, NanoBRET™ Tracers and dilution buffer, NanoBRET™ Nano-Glo Substrate, Extracellular NanoLuc® Inhibitor were obtained from Promega.
Assays were conducted following Promega assay protocol with some modifications as described further below. HEK-293 Cells were transiently transfected with Kinase-NanoLuc® Fusion Vector DNA by FuGENE HD Transfection Reagent. Test compounds were delivered into 384 well assay plate by Echo 550 (Labcyte Inc, Sunnyvale, CA). Transfected cells were harvested and mixed with NanoBRET™ Tracer Reagent and dispensed into 384 well plates and incubated at 37° C. in 5% CO2 cell culture incubator for 1 hour. The NanoBRET™ Nano-Glo Substrate plus Extracellular NanoLuc® Inhibitor Solution were added into the wells of the assay plate and incubated for 2-3 minutes at room temperature. The donor emission wavelength (460 nm) and acceptor emission wavelength (600 nm) were measured in the EnVision plate reader. The BRET Ratios were calculated. BRET Ratio=[(Acceptor sample÷Donor sample)−(Acceptor no-tracer control÷Donor no-tracer control)]. The IC50 values of compounds were calculated with Prism GraphPad program.
• 1. Transient Transfection of HEK-293 Cells NanoLuc® Fusion Vector DNA • 1). Cultivate HEK-293 cells (70-80% confluence) appropriately prior to assay. Trypsinize and collect HEK-293 cells. • 2). Prepare lipid: DNA complexes as follows: • a. Prepare a […] solution of DNA in Opti-MEM™ without serum that consists of the following ratios of carrier DNA and DNA encoding NanoLuc® fusion. 9.0 µg/mL of Transfection Carrier DNA, […] of NanoLuc® fusion vector DNA and 1 mL of Opti-MEM™ without phenol red. Mix thoroughly. • b. Add 30 μl of FuGENE HD Transfection Reagent into each milliliter of DNA mixture to form lipid: DNA complex. • c. Mix by inversion 10 times. • d. Incubate at ambient temperature for 20 minutes to allow complexes to form. • 3). In a sterile, conical tube, mix 1 part of lipid: DNA complex with 20 parts of HEK-293 cells in suspension. Mix gently by inversion 5 times. • 4). Dispense cells+lipid: DNA complex into a sterile tissue culture dish and incubate for 22-24 hours. • 2. Addition of Test Compounds (dry plate shooting): Each test compound is delivered from the compound source plate to the wells of 384-well white NBS plate by Echo 550. • 3. Preparation of Cells with NanoBRET™ Tracer Reagent • 1). Remove medium from dish with transfected HEK-293 cells via aspiration, trypsinize and allow cells to dissociate from the dish. • 2). Neutralize trypsin using medium containing serum and centrifuge at 200× g for 5 minutes to pellet the cells. Adjust the cell density to 2×10^5 cells/mL in Opti-MEM™ without phenol red. • 3). Prepare Complete 20× NanoBRET™ Tracer Reagent with Tracer Dilution Buffer. • 4). Dispense one part of Complete 20× NanoBRET™ Tracer Reagent to 20 parts of cells in the tube. Mix gently by inversion 10 times. • 5). […]

pIC50 | SMILES
7.06 | Cc1cc(-c2ccnc3[nH]cc(F)c23)ccc1[C@@]1(O)[C@H](C)CN(C2CCC2)C[C@@H]1C [Compound 54, (3R,4s,5S)-1-cyclobutyl-4-(4-(3-fluoro-1H-pyrrolo[2,3-b]pyridin-4-yl)-2-methylphenyl)-3,5-dimethylpiperidin-4-ol]
6.44 | Cc1cc(-c2ccnc3[nH]cc(F)c23)ccc1[C@@]1(O)[C@H](C)CN(C2CCS(=O)(=O)CC2)C[C@@H]1C [Compound 55, 4-((3R,4s, 5S)-4-(4-(3-fluoro-1H-pyrrolo[2,3-b]pyridin-4-yl)-2-methylphenyl)-4-hydroxy-3,5S-dimethylpiperidin-1-yl)tetrahydro-2H-thiopyran 1,1-dioxide]
6.83 | C[C@@H]1CN(C(=O)CN)C[C@H](C)[C@@]1(O)c1c(F)cc(-c2ccnc3[nH]cc(F)c23)cc1F [Compound 58]
7.67 | Cc1cc(-c2ccnc3[nH]cc(F)c23)ccc1[C@@]1(O)[C@H](C)CN(C(=O)CN)C[C@@H]1C [Compound 60, 2-amino-1-((3R,4s,5S)-4-(4-(3-fluoro-1H-pyrrolo[2,3-b]pyridin-4-yl)-2-methylphenyl)-4-hydroxy-3,5-dimethylpiperidin-1-yl)ethan-1-one]
6.69 | C[C@@H]1CN(CC(N)=O)C[C@H](C)[C@@]1(O)c1c(F)cc(-c2ccnc3[nH]cc(F)c23)cc1F [Compound 88, 2-((3R,4s,5S)-4-(2,6-difluoro-4-(3-fluoro-1H-pyrrolo[2,3-b]pyridin-4-yl)phenyl)-4-hydroxy-3,5-dimethylpiperidin-1-yl)acetamide]
6.47 | C[C@@H]1CN(C2CCNCC2)C[C@H](C)[C@@]1(O)c1c(F)cc(-c2ccnc3[nH]cc(F)c23)cc1F [Compound 90, (3R,4s,5S)-4-(2,6-difluoro-4-(3-fluoro-1H-pyrrolo[2,3-b]pyridin-4-yl)phenyl)-3,5-dimethyl-[1,4′-bipiperidin]-4-ol]
< 4.30 | OC1(c2ccc(-c3ccnc4[nH]ccc34)cc2)CCNCC1 [Compound 111, 4-(4-(1H-pyrrolo[2,3-b]pyridin-4-yl)phenyl)piperidin-4-ol]
7.24 | Cc1cc(-c2ccnc3[nH]cc(F)c23)cc(F)c1C1(O)CC2(CN(C3COC3)C2)C1 [Compound 139, 6-(2-fluoro-4-(3-fluoro-1H-pyrrolo[2,3-b]pyridin-4-yl)-6-methylphenyl)-2-(oxetan-3-yl)-2-azaspiro[3.3]heptan-6-ol]
5.74 | O=C([C@H]1CCCN1)N1CCC(O)(c2ccc(-c3ccnc4[nH]cc(F)c34)cc2)CC1 [Compound 142]
< 4.30 | Fc1c[nH]c2nccc(-c3ccc(C4CCNCC4)c(Cl)c3)c12 [Compound 172, 4-(3-chloro-4-(piperidin-4-yl)phenyl)-3-fluoro-1H-pyrrolo[2,3-b]pyridine]
5.92 | Clc1c[nH]c2nccc(-c3ccc(C4CCNCC4)cc3)c12 [Compound 173, 3-chloro-4-(4-(piperidin-4-yl)phenyl)-1H-pyrrolo[2,3-b]pyridine]
4.32 | Cc1cc(-c2ccnc3[nH]ccc23)ccc1C1CCNCC1 [Compound 177, 4-(3-methyl-4-(piperidin-4-yl)phenyl)-1H-pyrrolo[2,3-b]pyridine]
4.24 | c1cc(-c2ccc(C3CC4CCC(C3)N4)cc2)c2cc[nH]c2n1 (stereo not shown) [Compound 184, 4-(4-(8-azabicyclo[3.2.1]octan-3-yl)phenyl)-1H-pyrrolo[2,3-b]pyridine]
< 4.30 | CC1CC(c2ccc(-c3ccnc4[nH]ccc34)cc2)CC(C)N1 (stereo not shown) [Compound 187, 4-(4-(2,6-dimethylpiperidin-4-yl)phenyl)-1H-pyrrolo[2,3-b]pyridine]
< 4.30 | CC1(c2ccc(-c3ccnc4[nH]ccc34)cc2)CCNCC1 [Compound 201, 4-(4-(4-methylpiperidin-4-yl)phenyl)-1H-pyrrolo[2,3-b]pyridine]
5.20 | Cc1cc(-c2ccnc3[nH]cc(F)c23)ccc1CN [Compound 211, (4-(3-fluoro-1H-pyrrolo[2,3-b]pyridin-4-yl)-2-methylphenyl) methanamine]
6.19 | NCc1ccc(-c2ccnc3[nH]cc(-c4ccccc4)c23)cc1-c1ccccc1 [Compound 219, (5-(3-phenyl-1H-pyrrolo[2,3-b]pyridin-4-yl)-[1,1′-biphenyl]-2-yl)methanamine]
4.18 | COC(=O)c1c[nH]c2nccc(-c3ccc(CN)cc3)c12 [Compound 223, methyl 4-(4-(aminomethyl)phenyl)-1H-pyrrolo[2,3-b]pyridine-3-carboxylate]

SMILES | pIC50
Cc1cc(-c2ccnc3[nH]cc(F)c23)cc(F)c1[C@@]1(O)[C@H](C)CN(C2CCS(=O)(=O)CC2)C[C@@H]1C [Compound 57, 4-((3R,4s,5S)-4-(2-fluoro-4-(3-fluoro-1H-pyrrolo[2,3-b]pyridin-4-yl)-6-methylphenyl)-4-hydroxy-3,5-dimethylpiperidin-1-yl)tetrahydro-2H-thiopyran 1,1-dioxide] | 7.43
Cc1cc(-c2ccnc3[nH]cc(F)c23)cc(F)c1[C@@]1(O)[C@H](C)CN(C(=O)CN)C[C@@H]1C [Compound 61, 2-amino-1-((3R,4s,5S)-4-(2-fluoro-4-(3-fluoro-1H-pyrrolo[2,3-b]pyridin-4-yl)-6-methylphenyl)-4-hydroxy-3,5-dimethylpiperidin-1-yl)ethan-1-one] | 8.40
OC1(c2ccc(-c3ccnc4[nH]cc(F)c34)cc2)CCNCC1 [Compound 110, 4-(4-(3-fluoro-1H-pyrrolo[2,3-b]pyridin-4-yl)phenyl)piperidin-4-ol] | 4.75
Fc1c[nH]c2nccc(-c3ccc(C4CCNCC4)cc3)c12 [Compound 169, 3-fluoro-4-(4-(piperidin-4-yl)phenyl)-1H-pyrrolo[2,3-b]pyridine] | 4.59

— US20250361230A1, “LATS Inhibitors and Uses Thereof” (The USA, as Represented by the Secretary, Dept. of Heath …, priority 2022, published 2025)
